pIC50: −log10 of the molar value.
Key:
[1] = tested on: PC3 (Prostate Cancer) cells; assay: Cellular growth assay (MTT), PC3; assay type: cell-based; settings: Homo sapiens, PC-3, 40 hr incubation, read-out: PC3 (inhibition of 50% of cellular growth)
Protocol: (§1) K562 (Chronic Myeloid Leukemia), PC3 (Prostate Cancer), and DU145 (Prostate Cancer) were obtained from the American Type Culture Collection (ATCC). K562 was grown in RPMI, with 10% FBS with Glutamx added. DU145 cells were cultured in DMED, with 10% FBS and Glutamx and MEM non-essential amino acids added. PC3 cells were grown in F12K medium, with 10% FBS and Glutamx and MEM non-essential amino acids added. All cells were grown at 37° C. in 5% CO2.

TelJak3 = TelJak3 (Homo sapiens, UniProt P52333); assay: Cellular growth assay (MTT), BaF3 TEL/JAK3 cells; assay type: cell-based; settings: 40 hr incubation, read-out: TelJak3 (inhibition of 50% of cellular growth)
TelJak2 = TelJak2 (Homo sapiens, UniProt O60674); assay: Cellular growth assay (MTT), BaF3 TEL/JAK2 cells; assay type: cell-based; settings: 40 hr incubation, read-out: TelJak2 (inhibition of 50% of cellular growth)
Tubulin = Tubulin assay (turbidometric microtubule assembly); assay type: biochemical; settings: at 50 μM, absorbance at 340 nm, 37° C.
Protocol: Turbidometric assays of microtubule assembly were performed by incubating microtubule protein in cuvettes at 37° C. in a thermostatically controlled spectrophotometer measuring the change in absorbance at 340 nm over time. The microtubule protein was incubated with the each test compound at 0° C. and polymerisation was initiated by addition of 1 mM GTP, prior to heating to 37° C.

[2] = tested on: DU145 (Prostate Cancer) cells; assay: Cellular growth assay (MTT), DU145; assay type: cell-based; settings: Homo sapiens, DU-145, 40 hr incubation, read-out: DU145 (inhibition of 50% of cellular growth)
Protocol: as §1

[3] = tested on: K562 (Chronic Myeloid Leukemia) cells; assay: Cellular growth assay (MTT), K562; assay type: cell-based; settings: Homo sapiens, 40 hr incubation, read-out: K562 (inhibition of 50% of cellular growth)
Protocol: as §1

Chain of TelJak2 (O60674 with tags, fused parts or gaps): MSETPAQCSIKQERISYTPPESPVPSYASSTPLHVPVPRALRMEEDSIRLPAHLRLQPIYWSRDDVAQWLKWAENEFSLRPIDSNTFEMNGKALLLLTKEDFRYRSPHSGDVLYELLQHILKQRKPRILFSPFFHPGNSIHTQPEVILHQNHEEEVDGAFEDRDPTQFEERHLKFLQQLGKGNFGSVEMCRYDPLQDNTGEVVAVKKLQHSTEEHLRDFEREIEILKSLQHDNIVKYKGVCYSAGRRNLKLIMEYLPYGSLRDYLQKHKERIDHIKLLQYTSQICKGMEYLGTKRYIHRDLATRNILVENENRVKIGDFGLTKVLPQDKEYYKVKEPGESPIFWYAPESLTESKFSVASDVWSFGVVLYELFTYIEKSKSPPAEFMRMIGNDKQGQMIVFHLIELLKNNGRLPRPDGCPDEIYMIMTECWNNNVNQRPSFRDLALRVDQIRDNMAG
Chain of TelJak3 (P52333 with tags, fused parts or gaps): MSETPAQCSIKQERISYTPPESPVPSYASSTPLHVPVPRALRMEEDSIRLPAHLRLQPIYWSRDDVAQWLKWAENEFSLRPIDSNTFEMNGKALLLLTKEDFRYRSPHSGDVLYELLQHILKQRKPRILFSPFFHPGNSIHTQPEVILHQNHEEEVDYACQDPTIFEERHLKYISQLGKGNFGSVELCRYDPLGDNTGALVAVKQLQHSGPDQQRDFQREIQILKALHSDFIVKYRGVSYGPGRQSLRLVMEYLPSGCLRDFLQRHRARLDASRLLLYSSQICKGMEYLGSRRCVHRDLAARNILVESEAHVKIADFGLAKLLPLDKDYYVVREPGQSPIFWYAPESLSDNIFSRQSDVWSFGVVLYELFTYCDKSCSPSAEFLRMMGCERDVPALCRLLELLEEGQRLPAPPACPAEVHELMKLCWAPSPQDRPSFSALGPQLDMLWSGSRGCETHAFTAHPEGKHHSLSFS

| SMILES | pIC50 [1] | pIC50 (TelJak3) | pIC50 (TelJak2) | Tubulin (inhibition of tubulin polymerisation) (Tubulin) | pIC50 [2] | pIC50 [3] |
| --- | --- | --- | --- | --- | --- | --- |
| CCCC(Nc1cncc(-c2ccc(O)c(OC)c2)n1)c1cccc(OC)c1 (centres unmarked) | ≥ 4.70 | ≥ 4.70 | ≥ 4.70 | + (inhibited tubulin polymerisation by greater than 50% at 50 μM) | ≥ 4.70 | ≥ 4.70 |
| COc1cc(-c2cncc(NC(CC(C)C)c3ccccc3)n2)ccc1O (centres unmarked) | < 4.70 | ≥ 4.70 | ≥ 4.70 | – | < 4.70 | ≥ 4.70 |
| CCCC(Nc1cncc(-c2ccc(O)c(OC)c2)n1)c1ccc(O)cc1 (centres unmarked) | < 4.70 | ≥ 4.70 | ≥ 4.70 | – | < 4.70 | < 4.70 |
| CCCC(Nc1cncc(-c2ccc(O)c(OC)c2)n1)c1ccc(SC)cc1 (centres unmarked) | < 4.70 | ≥ 4.70 | ≥ 4.70 | – | < 4.70 | ≥ 4.70 |
| CCCC(Nc1cncc(-c2cc(OC)c(OC)c(OC)c2)n1)c1ccccc1 (centres unmarked) | < 4.70 | ≥ 4.70 | ≥ 4.70 | – | ≥ 4.70 | ≥ 4.70 |
| CCCC(Nc1cncc(-c2cccc(OC)c2)n1)c1ccccc1 (centres unmarked) | < 4.70 | ≥ 4.70 | ≥ 4.70 | – | < 4.70 | ≥ 4.70 |
| COc1cc(-c2cncc(NC(CCO)c3ccccc3)n2)ccc1O (centres unmarked) | < 4.70 | ≥ 4.70 | ≥ 4.70 | – | < 4.70 | < 4.70 |
| CCCC(Nc1cncc(-c2ccc(O)c(OC)c2)n1)c1ccc(N(CC)CC)cc1 (centres unmarked) | < 4.70 | ≥ 4.70 | ≥ 4.70 | – | ≥ 4.70 | < 4.70 |
| CCCC(Nc1cncc(-c2ccc(O)c(OC)c2)n1)c1ccc(OC)c(OC)c1 (centres unmarked) | < 4.70 | ≥ 4.70 | ≥ 4.70 | – | ≥ 4.70 | ≥ 4.70 |
| CCCC(Nc1cncc(-c2ccc(N)c(OC)c2)n1)c1ccc(F)cc1 (centres unmarked) | ≥ 4.70 | ≥ 4.70 | ≥ 4.70 | + (inhibited tubulin polymerisation by greater than 50% at 50 μM) | ≥ 4.70 | ≥ 4.70 |
| CCCC(Nc1cncc(-c2ccc(O)c(OC)c2)n1)c1cccc(N)c1 (centres unmarked) | ≥ 4.70 | ≥ 4.70 | ≥ 4.70 | + (inhibited tubulin polymerisation by greater than 50% at 50 μM) | < 4.70 | ≥ 4.70 |
| CCCC(Nc1cncc(-c2ccc(O)c(OC)c2)n1)c1cccc(NC(C)=O)c1 (centres unmarked) | < 4.70 | ≥ 4.70 | ≥ 4.70 | – | < 4.70 | ≥ 4.70 |
| CCCC(Nc1cncc(-c2ccc(O)c(OC)c2)n1)c1cccc(C#N)c1 (centres unmarked) | ≥ 4.70 | ≥ 4.70 | ≥ 4.70 | – | < 4.70 | ≥ 4.70 |
| CCCC(Nc1cncc(-c2ccc(NS(C)(=O)=O)c(OC)c2)n1)c1ccc(F)cc1 (centres unmarked) | ≥ 4.70 | ≥ 4.70 | ≥ 4.70 | – | < 4.70 | ≥ 4.70 |
| CCC[C@H](Nc1cncc(-c2ccc(O)c(OC)c2)n1)c1cccnc1 | ≥ 4.70 | ≥ 4.70 | ≥ 4.70 | + (inhibited tubulin polymerisation by greater than 50% at 50 μM) | ≥ 4.70 | ≥ 4.70 |
| CCCC(Nc1nc(-c2ccc(O)c(OC)c2)cnc1C)c1ccccc1 (centres unmarked) | ≥ 4.70 | ≥ 4.70 | ≥ 4.70 | + (inhibited tubulin polymerisation by greater than 50% at 50 μM) | ≥ 4.70 | ≥ 4.70 |
| CCCC(Nc1cncc(-c2ccc3c(c2)OCO3)n1)c1cccnc1 (centres unmarked) | < 4.70 | ≥ 4.70 | ≥ 4.70 | – | < 4.70 | ≥ 4.70 |
| CCCC(Nc1cncc(-c2ccc(O)c(OC)c2)n1)c1cccc([C@H](O)OCCOCC)c1 (some centres unmarked) | < 4.70 | ≥ 4.70 | ≥ 4.70 | – | < 4.70 | ≥ 4.70 |
| CCCOC(=O)c1cccc(C(CCC)Nc2cncc(-c3ccc(O)c(OC)c3)n2)c1 (centres unmarked) | ≥ 4.70 | ≥ 4.70 | ≥ 4.70 | – | < 4.70 | ≥ 4.70 |
| CCCC(Nc1cncc(-c2ccc(O)c(OC)c2)n1)c1cccc(F)c1F (centres unmarked) | < 4.70 | ≥ 4.70 | ≥ 4.70 | – | < 4.70 | ≥ 4.70 |
| CCCC(Nc1cncc(-c2ccc(O)c(OC)c2)n1)c1ccc(Cl)c(F)c1 (centres unmarked) | < 4.70 | ≥ 4.70 | ≥ 4.70 | – | < 4.70 | ≥ 4.70 |
| CCCC(Nc1cncc(-c2ccc(O)c(OCC)c2)n1)c1cccc(F)c1 (centres unmarked) | ≥ 4.70 | ≥ 4.70 | ≥ 4.70 | – | < 4.70 | ≥ 4.70 |

| SMILES | pIC50 [1] | pIC50 (TelJak3) | pIC50 (TelJak2) | Tubulin (inhibition of tubulin polymerisation) (Tubulin) | pIC50 [2] | pIC50 [3] |
| --- | --- | --- | --- | --- | --- | --- |
| CCCC(Nc1cncc(-c2ccc(O)c(OC)c2)n1)c1cccc(OC(F)(F)F)c1 (centres unmarked) | < 4.70 | ≥ 4.70 | ≥ 4.70 | – | < 4.70 | ≥ 4.70 |
| CCCC(Nc1nc(-c2ccc(O)c(OC)c2)cnc1N)c1cccc(F)c1 (centres unmarked) | < 4.70 | ≥ 4.70 | ≥ 4.70 | – | < 4.70 | ≥ 4.70 |
| CCCC(Nc1cncc(-c2ccc(O)c(OC)c2)n1)c1cc(F)ccc1F (centres unmarked) | < 4.70 | ≥ 4.70 | ≥ 4.70 | – | < 4.70 | ≥ 4.70 |
| CCCC(Nc1cncc(-c2ccc(O)c(OC)c2)n1)c1cccc(C(=O)NC)c1 (centres unmarked) | < 4.70 | ≥ 4.70 | ≥ 4.70 | – | < 4.70 | ≥ 4.70 |
| CCCC(Nc1cncc(-c2ccc(O)c(OC)c2)n1)c1cccc(C(=O)NC(C)C2CC2)c1 (centres unmarked) | < 4.70 | ≥ 4.70 | ≥ 4.70 | – | < 4.70 | ≥ 4.70 |
| CCCC(Nc1cncc(-c2ccc(O)c(OC)c2)n1)c1cccc(C(=O)NCCN(C)C)c1 (centres unmarked) | ≥ 4.70 | ≥ 4.70 | ≥ 4.70 | – | < 4.70 | ≥ 4.70 |
| CCCC(Nc1cncc(-c2ccc(O)c(OC)c2)n1)c1cccc(C(=O)NCc2cccnc2)c1 (centres unmarked) | < 4.70 | ≥ 4.70 | ≥ 4.70 | – | < 4.70 | ≥ 4.70 |
| CCCC(Nc1cncc(-c2ccc(O)c(OC)c2)n1)c1ccncc1 (centres unmarked) | – | ≥ 4.70 | ≥ 4.70 | – | < 4.70 | ≥ 4.70 |
| CCCC(Nc1cncc(-c2ccc(O)c(OCC)c2)n1)c1cncc(C)c1 (centres unmarked) | ≥ 4.70 | ≥ 4.70 | ≥ 4.70 | – | < 4.70 | ≥ 4.70 |
| CCCC(Nc1cncc(-c2ccc(NC(C)=O)c(OC)c2)n1)c1cncc(C)c1 (centres unmarked) | < 4.70 | ≥ 4.70 | ≥ 4.70 | – | ≥ 4.70 | ≥ 4.70 |
| CCCC(Nc1cncc(-c2ccc(O)c(OCC)c2)n1)c1cccnc1 (centres unmarked) | ≥ 4.70 | ≥ 4.70 | ≥ 4.70 | – | < 4.70 | ≥ 4.70 |
| COc1cc(-c2cncc(NC(CCC3OCCO3)c3cccc(Cl)c3)n2)ccc1O (centres unmarked) | < 4.70 | ≥ 4.70 | ≥ 4.70 | – | < 4.70 | ≥ 4.70 |
| CCCC(Nc1cncc(-c2cc(OC)c(O)c(OC)c2)n1)c1ccccc1 (centres unmarked) | < 4.70 | ≥ 4.70 | ≥ 4.70 | – | < 4.70 | < 4.70 |
| CCCC(Nc1cncc(-c2ccc(NC(C)=O)c(OC)c2)n1)c1cccnc1 (centres unmarked) | ≥ 4.70 | ≥ 4.70 | ≥ 4.70 | – | < 4.70 | ≥ 4.70 |
| CCCC(Nc1cncc(-c2ccc(N)c(OC)c2)n1)c1ccccc1 (centres unmarked) | < 4.70 | ≥ 4.70 | ≥ 4.70 | – | < 4.70 | ≥ 4.70 |
| CCCC(=O)Nc1ccc(-c2cncc(NC(CCC)c3cccnc3)n2)cc1OC (centres unmarked) | ≥ 4.70 | ≥ 4.70 | ≥ 4.70 | – | – | ≥ 4.70 |
| CCC[C@H](Nc1cncc(-c2ccc(NC(C)=O)c(OC)c2)n1)c1ccccc1 | < 4.70 | ≥ 4.70 | ≥ 4.70 | – | – | – |
| CCN(CC)CCCC(Nc1cncc(-c2ccc(O)c(OC)c2)n1)c1ccccc1 (centres unmarked) | < 4.70 | ≥ 4.70 | ≥ 4.70 | – | < 4.70 | < 4.70 |
| CCN(CC)CCCCC(Nc1cncc(-c2ccc(O)c(OC)c2)n1)c1ccccc1 (centres unmarked) | < 4.70 | ≥ 4.70 | ≥ 4.70 | – | ≥ 4.70 | < 4.70 |
| COc1cc(-c2cncc(NC(CCCCN3CCOCC3)c3ccccc3)n2)ccc1O (centres unmarked) | < 4.70 | ≥ 4.70 | ≥ 4.70 | – | < 4.70 | < 4.70 |
| CCC[C@H](Nc1cncc(-c2ccc(NCC)c(OC)c2)n1)c1ccccc1 | ≥ 4.70 | ≥ 4.70 | ≥ 4.70 | – | < 4.70 | ≥ 4.70 |
| COc1cc(-c2cncc(NC(C)c3ccccn3)n2)ccc1O (centres unmarked) | < 4.70 | ≥ 4.70 | ≥ 4.70 | – | < 4.70 | < 4.70 |

Reference: patent publication US8084456B2, “Pyrazine-based tubulin inhibitors” (YM Biosciences Australia Pty Ltd, priority 2002, dated 2011)
